{"source": "paper PMC9652372", "about": "“Glycolytic flux control by drugging phosphoglycolate phosphatase” (Nature Communications, 2022)", "key": {"HT1080 cells [1]": {"system": "HT1080 cells", "test": "NMR quantification of cellular metabolites", "format": "cell-based, human", "settings": "T24: 24h CP1-treated, Exp #1-5", "protocol": "For NMR experiments, 2.7 million cells were seeded in 10 cm dishes for all samples. […] For each condition, six samples were prepared; one of which was used to count the number of cells at the end of the sample preparation. Free metabolites were obtained by methanol extraction: After washing the samples with ice-cold PBS, they were placed in liquid nitrogen for 2 min, followed by mixing the samples cooled on ice with 5 mL methanol. The samples were mixed for 15 min at 4 °C, and centrifuged at 2.5 × g for 30 min at 4 °C. The solvent was removed by evaporation with a N2 gas flow over 5 h on ice, followed by freeze-drying under vacuum. The remaining pellet was dissolved in 700 µL D2O, and transferred to a 5 mm borosilicate NMR tube. NMR experiments were performed with a BRUKER AVANCE NEO 600 spectrometer operating at 600.13 MHz for ^1H detection equipped with a cryogenic NMR probe offering enhanced sensitivity. The ^1H NMR spectra were acquired using a double watergate pulse sequence with excitation sculpting for water suppression. A relaxation delay of 4 s was sufficient. The π and π/2 pulses performed with a radio frequency power of 62.5 kHz were combined with 2 ms selective rectangular shape pulses optimized for efficient suppression of the H2O ^1H resonance, which was chosen as the transmitter frequency. The two blocks of gradient pulses were conducted over 1 ms per pulse using gradients of 0.155 T/m and 0.055 T/m with a smoothed rectangular shape profile (SMSQ10.100). Signal averaging was achieved over 512 scans using an acquisition time of 1.38 s. Acquisition and pre-processing of NMR spectra was performed under the control of a workstation with TopSpin 4.0.7. Data processing included Fourier transformation, zero order phase correction, 1 Hz line broadening using a Lorentzian window function and automatic baseline correction with a polynomial of fifth degree. A 9 mmol/L aqueous sucrose solution was used as a calibration compound to calibrate an ERETIC2 reference for absolute concentration determination[66],[67]. Based on the sucrose reference, an electronic signal was placed in each ^1H spectrum to calibrate the deconvolution software Chenomx NMR suite. A standard protocol for quantitative NMR was applied: The signal corresponding to the calibration compound was integrated and normalized according to the number of protons of this compound. The unknown concentration of compound x in the presence of the calibration compound was calculated according to: Cx=Ix/IcalNcal/NxCcal\nWith I, N, and C being the integral area, number of nuclei, or concentration of the calibration (cal) or the targeted compound (x), respectively. Due to spectral superposition, glycerol-3-phosphate could not be quantified in ^1H NMR spectra. Therefore, we conducted ^31P - ^1H HMBC 2D experiments and quantified glycerol-3-phosphate using the phosphorylcholine peak and the respective concentration known from ^1H NMR spectra. […] Three gradient pulses were used (sequence hmbcgpndqf) over 1 ms each with gradient strengths of 0.06 T/m, 0.06 T/m and 0.05 T/m. The relaxation delay was set to 2 s, the acquisition time to 0.328 s. […] Data processing was achieved as described above except for the Qsine window function in both dimensions. All measurements were performed at 7 °C."}, "HT1080 cells [2]": {"system": "HT1080 cells", "test": "Cell proliferation assay (EdU incorporation)", "format": "cell-based, human", "protocol": "Parental HT1080 cells or the indicated CRISPR/Cas9-engineered control (PGP-WT) or PGP-KO cells were grown in complete DMEM. For the expression of PGP-WT or PGP-P127E, cells were transfected with either the pcDNA3 empty vector control or the indicated constructs in pcDNA3 using X-tremeGENE (Roche/Merck), according to the manufacturer’s instructions. […] To assess DNA synthesis, cells were labeled for 2.5 h with 10 μM 5-ethynyl-2'-deoxyuridine (EdU), fixed and permeabilized according to the manufacturer’s recommendations (Click-iT EdU Alexa Fluor 488 imaging kit, Invitrogen/Thermo Fisher). Cells were counterstained with 4′,6-diamidine-2-phenylindole (DAPI), embedded with Fluoromount-G (Thermo Fisher), and imaged on a Nikon TE Eclipse epifluorescence microscope equipped with a 4 × objective and NIS elements software AR 5.02.00. EdU and/or DAPI-positive cells were analyzed using the ImagePro-Plus software version 7.0 (Media Cybernetics). Statistical significance was assessed using GraphPad Prism 9.4.1 software."}, "murine PGP [3]": {"biological_target": "T1, murine PGP (Mus musculus, UniProt Q8CHP8)", "T1 sequence (Q8CHP8 1-321)": "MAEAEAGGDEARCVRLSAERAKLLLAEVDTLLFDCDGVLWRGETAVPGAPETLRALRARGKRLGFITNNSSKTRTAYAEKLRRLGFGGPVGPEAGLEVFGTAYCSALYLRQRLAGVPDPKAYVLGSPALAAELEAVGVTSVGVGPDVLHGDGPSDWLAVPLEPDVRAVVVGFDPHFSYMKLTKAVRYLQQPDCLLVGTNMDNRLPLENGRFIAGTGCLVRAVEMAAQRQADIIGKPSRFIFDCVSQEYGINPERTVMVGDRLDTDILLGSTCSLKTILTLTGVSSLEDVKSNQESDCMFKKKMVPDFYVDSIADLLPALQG", "test": "IC50 determination, murine PGP, 4-phosphoerythronate (4PE) dephosphorylation", "settings": "for M.m PGP on 4-Phosphoerythronate: activity, control = 100"}, "murine PGP [4]": {"biological_target": "T1, murine PGP", "test": "SAR: CP1, CP2 and analogs on PGP phosphatase activity (PG)", "format": "biochemical", "parameters": "His6 (N, cleaved yes); made in house; host or cells: Escherichia coli BL21 (DE3), pETM11, co-expressed with groES-groEL-tig", "protocol": "However, the DMSO concentration was kept constant across each assay. For SAR experiments, all compound stocks were prepared at 10 mM in 100% DMSO. A constant final DMSO concentration of 0.4% was maintained under all conditions, and solvent control samples contained 0.4% DMSO without compounds.\nPGP phosphatase activity were assessed using recombinant, purified murine PGP and PG as a"}}, "note": "Where “and” joins values, the source holds several entries; their conditions need not be identical. Equal values may be shown once.", "data": [{"molecule": "O=C(Nc1ccccc1C(=O)O)c1ccc(Oc2ccc(C(=O)Nc3ccccc3C(=O)O)cc2)cc1", "note": "[CP1]", "values": [{"measurement": "ADP (NMR metabolite level)", "setting": "HT1080 cells [1]", "result": "0.0007644 and 0.000746 and 0.001198 and 0.0008611 and 0.0008531"}, {"measurement": "ATP (NMR metabolite level)", "setting": "HT1080 cells [1]", "result": "0.0006449 and 0.0006294 and 0.0008357 and 0.0006838 and 0.0006775"}, {"measurement": "Acetic acid (NMR metabolite level)", "setting": "HT1080 cells [1]", "result": "0.003416 and 0.003823 and 0.003426 and 0.003622 and 0.002835"}, {"measurement": "Choline (NMR metabolite level)", "setting": "HT1080 cells [1]", "result": "0.0001911 and 0.0002098 and 0.0002507 and 0.0002533 and 0.0003011"}, {"measurement": "Creatine (NMR metabolite level)", "setting": "HT1080 cells [1]", "result": "0.005637 and 0.005968 and 0.005822 and 0.005673 and 0.00685"}, {"measurement": "Dimethylamine (NMR metabolite level)", "setting": "HT1080 cells [1]", "result": "0.01722 and 0.009371 and 0.01178 and 0.009801 and 0.01006"}, {"measurement": "Fumaric acid (NMR metabolite level)", "setting": "HT1080 cells [1]", "result": "0.0003583 and 0.0003497 and 0.0003621 and 0.0004052 and 0.0003764"}, {"measurement": "Glutathione (NMR metabolite level)", "setting": "HT1080 cells [1]", "result": "0.00848 and 0.006947 and 0.009193 and 0.008991 and 0.00828"}, {"measurement": "Glycerol 3-phosphate (NMR metabolite level)", "setting": "HT1080 cells [1]", "result": "0.005316 and 0.003498 and 0.00363 and 0.003634 and 0.003759"}, {"measurement": "Glycerophosphocholine (NMR metabolite level)", "setting": "HT1080 cells [1]", "result": "0.0005972 and 0.0004662 and 0.000585 and 0.0005065 and 0.0006022"}, {"measurement": "Glycine (NMR metabolite level)", "setting": "HT1080 cells [1]", "result": "0.01727 and 0.01921 and 0.02014 and 0.02011 and 0.0205"}, {"measurement": "L-Alanine (NMR metabolite level)", "setting": "HT1080 cells [1]", "result": "0.006617 and 0.007063 and 0.007716 and 0.007015 and 0.00695"}, {"measurement": "L-Arginine (NMR metabolite level)", "setting": "HT1080 cells [1]", "result": "0.002054 and 0.001585 and 0.002006 and 0.001975 and 0.001807"}, {"measurement": "L-Aspartic acid (NMR metabolite level)", "setting": "HT1080 cells [1]", "result": "0.003296 and 0.003217 and 0.003844 and 0.003495 and 0.003463"}, {"measurement": "L-Glutamic acid (NMR metabolite level)", "setting": "HT1080 cells [1]", "result": "0.03982 and 0.04634 and 0.04538 and 0.047 and 0.04456"}, {"measurement": "L-Glutamine (NMR metabolite level)", "setting": "HT1080 cells [1]", "result": "0.05231 and 0.05105 and 0.05192 and 0.04586 and 0.05314"}, {"measurement": "L-Isoleucine (NMR metabolite level)", "setting": "HT1080 cells [1]", "result": "0.007907 and 0.007716 and 0.008078 and 0.007775 and 0.007703"}, {"measurement": "L-Lactic acid (NMR metabolite level)", "setting": "HT1080 cells [1]", "result": "0.08184 and 0.08616 and 0.0795 and 0.07679 and 0.07736"}, {"measurement": "L-Leucine (NMR metabolite level)", "setting": "HT1080 cells [1]", "result": "0.00676 and 0.006597 and 0.007883 and 0.007192 and 0.007251"}, {"measurement": "L-Lysine (NMR metabolite level)", "setting": "HT1080 cells [1]", "result": "0.002293 and 0.002238 and 0.002674 and 0.002431 and 0.002409"}, {"measurement": "L-Methionine (NMR metabolite level)", "setting": "HT1080 cells [1]", "result": "0.002389 and 0.002331 and 0.002786 and 0.00276 and 0.002509"}, {"measurement": "L-Phenylalanine (NMR metabolite level)", "setting": "HT1080 cells [1]", "result": "0.004013 and 0.003916 and 0.004123 and 0.003976 and 0.003889"}, {"measurement": "L-Threonine (NMR metabolite level)", "setting": "HT1080 cells [1]", "result": "0.01522 and 0.01471 and 0.01638 and 0.01537 and 0.01478"}, {"measurement": "L-Tyrosine (NMR metabolite level)", "setting": "HT1080 cells [1]", "result": "0.004491 and 0.004849 and 0.004652 and 0.004635 and 0.00424"}, {"measurement": "L-Valine (NMR metabolite level)", "setting": "HT1080 cells [1]", "result": "0.007668 and 0.007693 and 0.007744 and 0.00775 and 0.007678"}, {"measurement": "N,N-Dimethylformamide (NMR metabolite level)", "setting": "HT1080 cells [1]", "result": "0.0002389 and 0.0002331 and 0.0002786 and 0.0002533 and 0.0002509"}, {"measurement": "NAD+ (NMR metabolite level)", "setting": "HT1080 cells [1]", "result": "0.002341 and 0.002611 and 0.002619 and 0.002533 and 0.002635"}, {"measurement": "NADH (NMR metabolite level)", "setting": "HT1080 cells [1]", "result": "0.0002389 and 0.0002331 and 0.0003343 and 0.0002786 and 0.0002509"}, {"measurement": "Phosphocreatine (NMR metabolite level)", "setting": "HT1080 cells [1]", "result": "0.001027 and 0.001002 and 0.001198 and 0.001165 and 0.001179"}, {"measurement": "Phosphorylcholine (NMR metabolite level)", "setting": "HT1080 cells [1]", "result": "0.002054 and 0.002168 and 0.002256 and 0.002102 and 0.002158"}, {"measurement": "Pyroglutamate (NMR metabolite level)", "setting": "HT1080 cells [1]", "result": "0.005255 and 0.004942 and 0.004596 and 0.005597 and 0.005796"}, {"measurement": "Pyruvate (NMR metabolite level)", "setting": "HT1080 cells [1]", "result": "0.001983 and 0.001422 and 0.001532 and 0.001798 and 0.001932"}, {"measurement": "Serine (NMR metabolite level)", "setting": "HT1080 cells [1]", "result": "0.005566 and 0.004965 and 0.004429 and 0.005901 and 0.004792"}, {"measurement": "Taurine (NMR metabolite level)", "setting": "HT1080 cells [1]", "result": "0.00922 and 0.008998 and 0.009499 and 0.01099 and 0.01194"}, {"measurement": "Tryptophan (NMR metabolite level)", "setting": "HT1080 cells [1]", "result": "0.0007883 and 0.0007693 and 0.0007243 and 0.0007851 and 0.0008029"}, {"measurement": "UDP-N-Acetylglucosamine (NMR metabolite level)", "setting": "HT1080 cells [1]", "result": "0.003941 and 0.005105 and 0.006156 and 0.005242 and 0.005269"}, {"measurement": "UDP-glucose (NMR metabolite level)", "setting": "HT1080 cells [1]", "result": "0.001935 and 0.001888 and 0.002981 and 0.002533 and 0.002559"}, {"measurement": "myo-Inositol (NMR metabolite level)", "setting": "HT1080 cells [1]", "result": "0.007859 and 0.009021 and 0.01109 and 0.01281 and 0.00961"}, {"measurement": "Edu-positive/DAPI-positive cells", "setting": "HT1080 cells [2]; KO C2 CP1 (S)", "result": "47.70% and 42.53% and 47.97%"}, {"measurement": "Edu-positive/DAPI-positive cells", "setting": "HT1080 cells [2]; WT D5 CP1 (S)", "result": "47.76% and 46.38% and 44.69%"}, {"measurement": "Edu-positive/DAPI-positive cells", "setting": "HT1080 cells [2]; WT D5 EV CP1 (L)", "result": "8.23% and 14.09% and 6.30%"}, {"measurement": "IC50", "setting": "murine PGP [3]", "result": "440 ± 60", "unit": "nM"}, {"measurement": "M.m PGP on 4-Phosphoerythronate", "setting": "murine PGP [3]; CP1 log[M] -5.34679", "result": "4.5082 and 7.8838 and 6.1475"}, {"measurement": "M.m PGP on 4-Phosphoerythronate", "setting": "murine PGP [3]; CP1 log[M] -5.94885", "result": "24.5902 and 29.0456 and 23.7705"}, {"measurement": "M.m PGP on 4-Phosphoerythronate", "setting": "murine PGP [3]; CP1 log[M] -6.24988", "result": "43.8525 and 48.1328 and 39.3443"}, {"measurement": "M.m PGP on 4-Phosphoerythronate", "setting": "murine PGP [3]; CP1 log[M] -6.55091", "result": "54.0984 and 64.3154 and 65.9836"}, {"measurement": "M.m PGP on 4-Phosphoerythronate", "setting": "murine PGP [3]; CP1 log[M] -6.85194", "result": "70.4918 and 82.5726 and 78.6885"}, {"measurement": "inhibition of mPGP activity at 40 µM CP compared to DMSO control (%)", "setting": "murine PGP [4]; 40 µM CP, single experiments Exp #1-3", "result": "92.9348% and 99.7175% and 99.6139%"}, {"measurement": "remaining activity at 8 µM", "setting": "murine PGP [4]; CP log[M] -5.09691, read-out: mPGP activity in presence of CP relative to DMSO controls, mPGP on PG (norm.)", "result": 1.61, "unit": "%"}, {"measurement": "remaining activity at 2 µM", "setting": "murine PGP [4]; CP log[M] -5.69897, read-out: mPGP activity in presence of CP relative to DMSO controls, mPGP on PG (norm.)", "result": 11.3, "unit": "%"}, {"measurement": "remaining activity at 1 µM", "setting": "murine PGP [4]; CP log[M] -6, read-out: mPGP activity in presence of CP relative to DMSO controls, mPGP on PG (norm.)", "result": 24.7, "unit": "%"}, {"measurement": "remaining activity at 0.5 µM", "setting": "murine PGP [4]; CP log[M] -6.30103, read-out: mPGP activity in presence of CP relative to DMSO controls, mPGP on PG (norm.)", "result": 35.5, "unit": "%"}, {"measurement": "remaining activity at […]", "setting": "murine PGP [4]; CP log[M] -6.60206, read-out: mPGP activity in presence of CP relative to DMSO controls, mPGP on PG (norm.)", "result": 66.1, "unit": "%"}, {"measurement": "remaining activity at 0.125 µM", "setting": "murine PGP [4]; CP log[M] -6.90309, read-out: mPGP activity in presence of CP relative to DMSO controls, mPGP on PG (norm.)", "result": 76.3, "unit": "%"}, {"measurement": "remaining activity at 0.0625 µM", "setting": "murine PGP [4]; CP log[M] -7.20412, read-out: mPGP activity in presence of CP relative to DMSO controls, mPGP on PG (norm.)", "result": 88.7, "unit": "%"}, {"measurement": "remaining activity at 0.03125 µM", "setting": "murine PGP [4]; CP log[M] -7.50515, read-out: mPGP activity in presence of CP relative to DMSO controls, mPGP on PG (norm.)", "result": 93, "unit": "%"}, {"measurement": "remaining activity at 0.0078125 µM", "setting": "murine PGP [4]; CP log[M] -8.10721, read-out: mPGP activity in presence of CP relative to DMSO controls, mPGP on PG (norm.)", "result": 101, "unit": "%"}]}]}
